Laboratory results as given in ChEMBL document CHEMBL1138959, “Novel class of cyclophosphamide prodrug: cyclophosphamide spiropiperaziniums (CPSP)” (Bioorg Med Chem Lett, 2006).

Columns and labels:
CCRF S-180 [1] = assay: Antitumor activity against S180 cells implanted in mouse at 30 mg/kg, ip; assay type: functional; settings: route intraperitoneal; for inhibition in vivo at 30 mg/kg: Mus musculus, CCRF S-180, ip
H22 [2] = assay: Antitumor activity against H22 cells implanted in mouse at 30 mg/kg, ip; assay type: functional; settings: route intraperitoneal; for inhibition in vivo at 30 mg/kg: Mus musculus, H22, ip
H22 [3] = assay: Antitumor activity against H22 cells implanted in mouse at 60 mg/kg, ip; assay type: functional; settings: route intraperitoneal
[4] = Toxicity in ip dosed mouse; assay type: organism-based; settings: in vivo
H22 [5] = assay: Antitumor activity against H22 cells implanted in mouse at 15 mg/kg, ip; assay type: functional; settings: route intraperitoneal
CCRF S-180 [6] = assay: Antitumor activity against S180 cells implanted in mouse at 15 mg/kg, ip; assay type: functional; settings: CCRF S-180, ip, route intraperitoneal
CCRF S-180 [7] = assay: Antitumor activity against S180 cells implanted in mouse at 60 mg/kg, ip; assay type: functional; settings: CCRF S-180, ip, route intraperitoneal

| SMILES | inhibition in vivo at 30 mg/kg (CCRF S-180 [1]) [%] | inhibition in vivo at 30 mg/kg (H22 [2]) [%] | also measured |
| --- | --- | --- | --- |
| C[N+]1(C)CCN(P2(=O)NCCCO2)CC1 (centres undefined) | 33.5 | 28.8 |  |
| CC1C[N+]2(CCN(P3(=O)NCCCO3)CC2)CC(C)O1 (centres undefined) | 46.6 | 20.6 |  |
| CN1CC[N+]2(CC1)CCN(P1(=O)NCCCO1)CC2.[Br-] (centres undefined) |  |  | Inhibition (CCRF S-180 [1]): 18.72%; Inhibition (H22 [2]): 11.6% |
| CN1CC[N+]2(CC1)CCN(P1(=O)NCCCO1)CC2.[I-] (centres undefined) |  |  | Inhibition (CCRF S-180 [1]): 29.41%; Inhibition (H22 [2]): 16.19% |
| CN1CC[N+]2(CC1)CCN(P1(=O)NCCCO1)CC2.[Cl-] (centres undefined) |  |  | inhibition in vivo at 60 mg/kg (H22 [3]): 38%; LD50 [4]: 1200 mg/kg; inhibition in vivo at 15 mg/kg (H22 [5]): 24.4%; inhibition in vivo at 15 mg/kg (CCRF S-180 [6]): 37.5%; Inhibition (CCRF S-180 [1]): 42.31%; inhibition in vivo at 60 mg/kg (CCRF S-180 [7]): 55.2%; Inhibition (H22 [2]): 41.66% |
| CC1CC[N+]2(CC1)CCN(P1(=O)NCCCO1)CC2 (centres undefined) | -13.3 | 32.2 |  |
| C[N+]1(Cc2ccccc2)CCN(P2(=O)NCCCO2)CC1 (centres undefined) | -3.28 | -6.63 |  |
| O=P1(N2CC[N+]3(CCN(Cc4ccccc4)CC3)CC2)NCCCO1 (centres undefined) | 33.7 |  |  |
| O=P1(N2CC[N+]3(CCCCC3)CC2)NCCCO1 (centres undefined) | 39.9 | 12.8 |  |
| O=P1(N2CC[N+]3(CCc4ccccc4C3)CC2)NCCCO1 (centres undefined) | 18.9 |  |  |
| O=P1(N2CC[N+]3(CCCC3)CC2)NCCCO1 (centres undefined) | 26.7 | 17.3 |  |
| O=P1(N2CC[N+]3(CCNCC3)CC2)NCCCO1 (centres undefined) | 10.7 | 8.64 |  |
| O=P1(N2CC[N+]3(CCCCCC3)CC2)NCCCO1.[Cl-] (centres undefined) | 36 | 48.4 | inhibition in vivo at 60 mg/kg (H22 [3]): 51.3%; LD50 [4]: 239 mg/kg; inhibition in vivo at 15 mg/kg (H22 [5]): 17.2%; inhibition in vivo at 15 mg/kg (CCRF S-180 [6]): 38.2%; inhibition in vivo at 60 mg/kg (CCRF S-180 [7]): 53.4% |
| O=P1(N2CC[N+]3(CCOCC3)CC2)NCCCO1 (centres undefined) | -27.6 | 32.5 |  |
| O=P1(N(CCCl)CCCl)NCCCO1 (centres undefined) [CYCLOPHOSPHAMIDE ANHYDROUS] | 72.9 | 72 | LD50 [4]: 387 mg/kg |
